Results reported in PubChem BioAssay AID248 (DTP/NCI, 2004).
Inconclusive results and toxic doses are left out. Cut-off read from the data, not from the text of the source: active = T/C of 150% or more; inactive = T/C below 125%.

System: L1210 leukemia ip in BDF1 mice, survival T/C
Experiment: NCI In Vivo Anticancer Drug Screen. Data for tumor model L1210 Leukemia (intraperitoneal) in B6D2F1 (BDF1) mice
Conditions: endpoint: mean survival time, higher = longer survival
Summary of the method: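 Survival endpoint. Drug-treated group vs vehicle group, expressed as T divided by C. Tumor passaged by transplantation.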

[1] = dose: 25.0 mg/kg/injection, schedule: Q01DX009 (ip), vehicle: saline
[2] = dose: 50.0 mg/kg/injection, schedule: Q01DX009 (ip), vehicle: saline
[3] = dose: 100.0 mg/kg/injection, schedule: Q01DX001 (ip), vehicle: saline
[4] = dose: 200.0 mg/kg/injection, schedule: Q01DX001 (ip), vehicle: saline
[5] = dose: 400.0 mg/kg/injection, schedule: Q01DX001 (ip), vehicle: saline
[6] = dose: 100.0 mg/kg/injection, schedule: Q01DX001 (ip), vehicle: Klucel (hydroxypropylcellulose) (HPC)
[7] = dose: 200.0 mg/kg/injection, schedule: Q01DX001 (ip), vehicle: Klucel (hydroxypropylcellulose) (HPC)
[8] = dose: 400.0 mg/kg/injection, schedule: Q01DX001 (ip), vehicle: Klucel (hydroxypropylcellulose) (HPC)
[9] = dose: 100.0 mg/kg/injection, schedule: Q01DX009 (ip), vehicle: Klucel (hydroxypropylcellulose) (HPC)
[10] = dose: 200.0 mg/kg/injection, schedule: Q01DX009 (ip), vehicle: Klucel (hydroxypropylcellulose) (HPC)
[11] = dose: 400.0 mg/kg/injection, schedule: Q01DX009 (ip), vehicle: Klucel (hydroxypropylcellulose) (HPC)
[12] = dose: 100.0 mg/kg/injection, schedule: Q04DX003 (ip), vehicle: saline with Tween-80
[13] = dose: 200.0 mg/kg/injection, schedule: Q04DX003 (ip), vehicle: saline with Tween-80
[14] = dose: 100.0 mg/kg/injection, schedule: Q01DX009 (ip), vehicle: saline with Tween-80
[15] = dose: 200.0 mg/kg/injection, schedule: Q01DX009 (ip), vehicle: saline with Tween-80

Measured: T/C

NS(=O)(=O)Cc1ccccc1
inactive: [1] 92 % of control | [2] 94 % of control | dose: 100.0 mg/kg/injection, schedule: Q01DX009 (ip), vehicle: saline 100 % of control

c1ccc(C23c4ccccc4C2c2ccccc23)nc1 (stereo unspecified)
inactive: dose: 12.5 mg/kg/injection, schedule: Q01DX009 (ip), vehicle: gum acacia 104 % of control | dose: 25.0 mg/kg/injection, schedule: Q01DX009 (ip), vehicle: gum acacia 100 % of control | dose: 50.0 mg/kg/injection, schedule: Q01DX009 (ip), vehicle: gum acacia 100 % of control | dose: 100.0 mg/kg/injection, schedule: Q04DX003 (ip), vehicle: gum acacia 97 % of control | dose: 200.0 mg/kg/injection, schedule: Q04DX003 (ip), vehicle: gum acacia 97 % of control | dose: 400.0 mg/kg/injection, schedule: Q04DX003 (ip), vehicle: gum acacia 104 % of control

CC(c1ccc([N+](=O)[O-])cc1)n1cnc2c(N(CCO)CCO)ncnc21 (stereo unspecified)
inactive: [3] 104 % of control | [4] 103 % of control | [5] 103 % of control

CCCCNS(=O)(=O)c1ccc(C(N)=S)cc1
inactive: [6] 111 % of control | [7] 106 % of control | [8] 103 % of control

COC12CC(COC(=O)c3cncc(Br)c3)CN(C)C1Cc1cn(C)c3cccc2c13 (stereo unspecified)
inactive: [9] 100 % of control | [10] 116 % of control | [11] 113 % of control

c1ccc(Nc2c3ccccc3nc3ccccc23)cc1
inactive: dose: 100.0 mg/kg/injection, schedule: Q04DX003 (ip), vehicle: other 115 % of control

Cc1c(CCO)sc[n+]1Cc1cccc([N+](=O)[O-])c1
inactive: [3] 98 % of control

CO[C@H]1C=CC2=CCN3CCC4=C(CC(=O)OC4)[C@]23C1
inactive: dose: 10.0 mg/kg/injection, schedule: Q01DX001 (ip), vehicle: saline 104 % of control | dose: 20.0 mg/kg/injection, schedule: Q01DX001 (ip), vehicle: saline 96 % of control

Nc1cc(=O)[nH]c(=S)n1-c1ccc(I)cc1
inactive: dose: 50.0 mg/kg/injection, schedule: Q01DX001 (ip), vehicle: saline 100 % of control | [3] 106 % of control | [4] 102 % of control | [5] 100 % of control

Nc1cccc(CO)c1
inactive: dose: 100.0 mg/kg/injection, schedule: Q04DX002 (ip), vehicle: saline with Tween-80 104 % of control | dose: 200.0 mg/kg/injection, schedule: Q04DX002 (ip), vehicle: saline with Tween-80 90 % of control | dose: 400.0 mg/kg/injection, schedule: Q04DX002 (ip), vehicle: saline with Tween-80 90 % of control

O=C1CCC(=O)N1C1C=CC=CC=C1
inactive: [12] 98 % of control | [13] 97 % of control | dose: 400.0 mg/kg/injection, schedule: Q04DX003 (ip), vehicle: saline with Tween-80 96 % of control

CCC(C)C(NC(=O)OCc1ccccc1)C(=O)ON1C(=O)CCC1=O (stereo unspecified)
inactive: [14] 94 % of control | [15] 96 % of control

O=[N+]([O-])c1ccc(Br)o1
inactive: dose: 6.25 mg/kg/injection, schedule: Q04DX003 (ip), vehicle: saline with Tween-80 110 % of control | dose: 12.5 mg/kg/injection, schedule: Q04DX003 (ip), vehicle: saline with Tween-80 101 % of control | dose: 25.0 mg/kg/injection, schedule: Q04DX003 (ip), vehicle: saline with Tween-80 105 % of control

CCOC(=O)N(CCCl)C(=O)C(C)C
inactive: [14] 92 % of control | [15] 96 % of control | dose: 400.0 mg/kg/injection, schedule: Q01DX009 (ip), vehicle: saline with Tween-80 94 % of control

CSCCC(C)C
inactive: dose: 50.0 mg/kg/injection, schedule: Q01DX009 (ip), vehicle: saline with Tween-80 112 % of control | [14] 106 % of control | [12] 95 % of control | [15] 95 % of control | [13] 103 % of control

O=C(O)c1cc([N+](=O)[O-])ccc1O
inactive: dose: 100.0 mg/kg/injection, schedule: Q01DX001 (ip), vehicle: carboxymethylcellulose (CMC) 95 % of control | dose: 100.0 mg/kg/injection, schedule: Q04DX002 (ip), vehicle: saline 101 % of control | dose: 200.0 mg/kg/injection, schedule: Q01DX001 (ip), vehicle: carboxymethylcellulose (CMC) 95 % of control | dose: 200.0 mg/kg/injection, schedule: Q04DX002 (ip), vehicle: saline 101 % of control | dose: 400.0 mg/kg/injection, schedule: Q04DX002 (ip), vehicle: saline 101 % of control

CCCCCCCCC(=O)C[N+](=O)[O-]
inactive: dose: 18.8 mg/kg/injection, schedule: Q01DX009 (ip), vehicle: saline 97 % of control | dose: 18.8 mg/kg/injection, schedule: Q04DX003 (ip), vehicle: saline 106 % of control | dose: 37.5 mg/kg/injection, schedule: Q01DX009 (ip), vehicle: saline 95 % of control | dose: 37.5 mg/kg/injection, schedule: Q04DX003 (ip), vehicle: saline 95 % of control | dose: 75.0 mg/kg/injection, schedule: Q01DX001 (ip), vehicle: saline 93 % of control | dose: 75.0 mg/kg/injection, schedule: Q01DX009 (ip), vehicle: saline 99 % of control | dose: 75.0 mg/kg/injection, schedule: Q04DX003 (ip), vehicle: saline 95 % of control

Cc1cc(O)cc(=O)[nH]1
inactive: [3] 97 % of control | [4] 100 % of control

CCN(CC)CCCOC(=O)c1ccc(N)cc1
inactive: dose: 12.5 mg/kg/injection, schedule: Q01DX009 (ip), vehicle: saline 103 % of control | [1] 97 % of control | [2] 98 % of control

CCOC(=O)C(CC(OCC)OCC)C1=NC(C)(C)CC(C)O1 (stereo unspecified)
inactive: [6] 105 % of control | [7] 89 % of control | [8] 100 % of control

CCCCCCCCCCCCOC(=N)N1CCCC1
inactive: dose: 8.8 mg/kg/injection, schedule: Q01DX Z (ip), vehicle: saline 96 % of control | dose: 13.3 mg/kg/injection, schedule: Q01DX Z (ip), vehicle: saline 102 % of control | dose: 20.0 mg/kg/injection, schedule: Q01DX Z (ip), vehicle: saline 100 % of control

Nc1ccc(P(=O)(Nc2cccc(Cl)c2)Nc2cccc(Cl)c2)cc1
inactive: dose: 100.0 mg/kg/injection, schedule: Q04DX003 (ip), vehicle: acetone 108 % of control | dose: 200.0 mg/kg/injection, schedule: Q04DX003 (ip), vehicle: acetone 92 % of control | dose: 400.0 mg/kg/injection, schedule: Q04DX003 (ip), vehicle: acetone 92 % of control

CCOc1cc(/C=N/NC(=O)c2ccccc2NC(=O)c2ccccc2Cl)ccc1O
inactive: [9] 90 % of control | [10] 95 % of control | [11] 92 % of control

C=CC1(O)CC2CCC1C2 (stereo unspecified)
inactive: [14] 101 % of control | [15] 96 % of control
